Values of other authors in patent US20210267955A1, “LOW DOSE ORAL PHARMACEUTICAL COMPOSITION OF PIRFENIDONE OR SALT THEREOF” (Zenvision Pharma LLP, priority 2018, published 2021).

Details: methanol, ethyl alcohol, acetone, chloroform vs water and 1.0 N hydrochloric acid

Structure (SMILES): Cc1ccc(=O)n(-c2ccccc2)c1 [Pirfenidone, 5-methyl-1-phenyl-2-(1H)-pyridone]
- solubility (qualitative): more soluble in methanol, ethyl alcohol, acetone and chloroform than in water and 1.0 N hydrochloric acid
